Experiments:
[1] = system: T lymphocytes; test: Cytokine induction by OKT-3 and/or PHA plus Ciprofloxacin, cells incubated in flasks; type: cell-based, human
Description: The buffy coat white cells of human blood from multiple HIV-negative hepatitis virus-negative donors is collected. In an alternative embodiment, animals are the cell source for veterinary uses. The cells from the donors are pooled and layered on ficoll hypaque gradients (Pharmacia) to yield lymphocytes free of neutrophils and erythrocytes. Alternative methods could be used that would result in the same starting lymphocyte population as are known in the art.
The lymphocytes are washed and distributed in X vivo-10 media (Whittaker Bioproducts) to surface activated cell culture flasks for selection of cell subsets (MICROCELLECTOR™ T-25 Cell Culture Flasks), which contain immobilized stimulants, i.e., mitogens like PHA. In one set of experiments, X vivo-15 and X vivo-20 media were used as indicated. The immobilization process for the stimulants is as described by the manufacturer for immobilizing various substances for panning procedures, i.e., separating cells, in the flasks. Alternatively, the lymphocytes are exposed to stimulants e.g., PHA for 2-4 hours then washed three times.
The cells are incubated for 24 to 48 hours in X vivo-10 media with 80 μg/ml Ciprofloxacin (Miles Lab) at 37° in a CO2/air incubator. […] Generally, the HSA is used at 0.1 to 0.5% (weight by volume). Following incubation, the supernatants are poured off and collected. Human serum albumin (HSA) may be added to stabilize further the interleukins if HSA-free media is used for generations. The supernatants are store at 4° C. to −70°.

[2] = system: endogenous suppression of T cells caused by cancer lesions; test: NSAID codelivered for contrasuppression in the NCM regimen; type: in vivo, human; details: for effectiveness as NSAID for blocking endogenous suppression of T cells: codelivery with low dose cyclophosphamide and NCM
Description: It is preferable to block endogenous suppression of T cells, such as caused by various cancer lesions. Blocking is effected by the codelivery of low dose cyclophosphamide and a nonsteroidal anti-inflammatory drug (NSAID). The NSAID of choice is indomethacin. […] Side effects of NSAIDs are to be aggressively treated with […] and a prostaglandin E analog. Zinc and multivitamins are useful agents to help restore T cell immunity. Treatment with contrasuppression and zinc without the NCM is ineffective.

[3] = system: thymocyte and splenocyte; details: in vivo thymosin α1 5 μg/animal/day, NCM 50 units IL-2 equivalence; FIGS. 21, 22; cited from earlier work

**Q.** Which results are given for “OKT-3: monoclonal antibody (Ortho) which induces T lymphocytes to proliferate and produce interleukins”?
**A.** GM-CSF [1]: 75 pg/mL; IFN-Y [1]: 11280 pg/mL; IL-1-β [1]: 1125 pg/mL; IL-6 [1]: 1980 pg/mL; TNF-α [1]: 2500 pg/mL

**Q.** With `COc1ccc2c(c1)c(CC(=O)O)c(C)n2C(=O)c1ccc(Cl)cc1` [indomethacin] as the compound, how does the toxicity ([2]; as NSAID of the regimen) read?
**A.** arguably the most toxic

**Q.** What about the “effectiveness as NSAID for blocking endogenous suppression of T cells” value (shortened to “effectiveness as NSAID”) [2] of the same compound?
**A.** most effective NSAID

**Q.** For `CC(C)Cc1ccc(C(C)C(=O)O)cc1` (stereo not shown) [Ibuprofen], which histological responses ([2]; as NSAID of the regimen) is on record?
**A.** characteristic of a TH2 rather than TH1 mediated response

**Q.** What about the “effectiveness as NSAID” value [2] of the same compound?
**A.** effective

**Q.** Which results are given for `CS(=O)(=O)c1ccc(C2=C(c3ccccc3)C(=O)OC2)cc1` [Vioxx®]?
**A.** toxicity ([2]; as NSAID of the regimen): causing gastritis in many patients; effectiveness as NSAID for blocking endogenous suppression of T cells [2]: less effective

**Q.** With `Cc1ccc(-c2cc(C(F)(F)F)nn2-c2ccc(S(N)(=O)=O)cc2)cc1` [Celebrex®] as the compound, how does the “effectiveness as NSAID” value [2] read?
**A.** less effective

**Q.** For Thymosin α1, which “thymocyte and splenocyte in vitro responses to media, rIL-1, rIL-2 and NCM” value [3] is on record?
**A.** increase many of the responses
